Molecular target: T1, Human MTHFD2 (Homo sapiens, UniProt P13995)
T1 construct: residues 36-350 in Uniport ID P13995; His6 (N); made in house; host or cells: E. coli
T1 sequence (P13995 36-350): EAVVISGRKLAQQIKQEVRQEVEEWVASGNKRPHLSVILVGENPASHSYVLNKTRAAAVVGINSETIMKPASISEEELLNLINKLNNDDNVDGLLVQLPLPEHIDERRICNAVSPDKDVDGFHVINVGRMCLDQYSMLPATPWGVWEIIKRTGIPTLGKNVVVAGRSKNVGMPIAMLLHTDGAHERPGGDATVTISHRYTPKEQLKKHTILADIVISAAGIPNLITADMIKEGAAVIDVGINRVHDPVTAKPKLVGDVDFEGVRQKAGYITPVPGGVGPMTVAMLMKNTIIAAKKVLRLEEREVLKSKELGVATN
Test: MTHFD2 Activity Assay (dehydrogenase activity, diaphorase/resazurin coupled fluorescence)
Format: biochemical
Conditions: inhibitory activity (IC50 and/or binding constant); 0.2 nM MTHFD2, 11 concentrations
In short: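 Steps: compound + 0.2 nM enzyme, 15 min, pH 8.0 Hepes buffer; add 70 μM CH2-THF, 1 mM NAD+, 100 μM resazurin, diaphorase; 30 min; quench with EDTA; read fluorescence. Data normalized to DMSO (100%) and no-enzyme (0%) wells.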

| IC50 [nM] | SMILES |
| --- | --- |
| 1000 to 5000 | Cn1c(Nc2ncn[nH]2)nc2c1c(=O)n(Cc1cc3cc(Cl)ccc3[nH]1)c(=O)n2C [Example 207, 8-(1H-1,2,4-triazol-5-ylamino)-1-((5-chloro-1H-indol-2-yl)methyl)-3,7-dimethyl-1H-purine-2,6(3H,7H)-dione] |
| 10 to 1000 | Cn1c(Nc2ccncn2)nc2c1c(=O)n(Cc1cc3cc(Cl)ccc3[nH]1)c(=O)n2C [Example 208, 1-((5-chloro-1H-indol-2-yl)methyl)-3,7-dimethyl-8-(pyrimidin-4-ylamino)-1H-purine-2,6(3H,7H)-dione] |
| 1000 to 5000 | Cc1ccc2[nH]c(Cn3c(=O)c4c(nc(CCO)n4C)n(C)c3=O)cc2c1 [Example 210, 8-(2-hydroxyethyl)-3,7-dimethyl-1-((5-methyl-1H-indol-2-yl)methyl)-1H-purine-2,6(3H,7H)-dione] |
| 1000 to 5000 | Cn1c(CCO)nc2c1c(=O)n(Cc1cc3ccccc3[nH]1)c(=O)n2C [Example 212, 1-((1H-indol-2-yl)methyl)-8-(2-hydroxyethyl)-3,7-dimethyl-1H-purine-2,6(3H,7H)-dione] |
| 10 to 1000 | Cn1c(N[C@H]2CCCNC2=O)nc2c1c(=O)n(Cc1cc3ccccc3[nH]1)c(=O)n2C [Example 213, (S)-1-((1H-indol-2-yl)methyl)-3,7-dimethyl-8-(2-oxopiperidin-3-ylamino)-1H-purine-2,6(3H,7H)-dione] |
| 10 to 1000 | Cn1c(Nc2ccncn2)nc2c1c(=O)n(Cc1cc3ccccc3[nH]1)c(=O)n2C [Example 216, 1-((1H-indol-2-yl)methyl)-3,7-dimethyl-8-(pyrimidin-4-ylamino)-1H-purine-2,6(3H,7H)-dione] |
| 10 to 1000 | Cn1c(-n2nccc2N)nc2c1c(=O)n(Cc1cc3ccccc3[nH]1)c(=O)n2C [Example 217, 1-((1H-indol-2-yl)methyl)-8-(5-amino-1H-pyrazol-1-yl)-3,7-dimethyl-1H-purine-2,6(3H,7H)-dione] |
| 10 to 1000 | Cc1ccc2[nH]c(Cn3c(=O)c4c(nc(-n5nccc5N)n4C)n(C)c3=O)cc2c1 [Example 218, 8-(5-amino-1H-pyrazol-1-yl)-3,7-dimethyl-1-((5-methyl-1H-indol-2-yl)methyl)-1H-purine-2,6(3H,7H)-dione] |
| 10 to 1000 | Cn1c(-n2nccc2N)nc2c1c(=O)n(Cc1cc3cc(Cl)ccc3[nH]1)c(=O)n2C [Example 219, 8-(5-amino-1H-pyrazol-1-yl)-1-((5-chloro-1H-indol-2-yl)methyl)-3,7-dimethyl-1H-purine-2,6(3H,7H)-dione] |
| 10 to 1000 | Cn1c(Cn2c(=O)c3c(nc(-n4nccc4N)n3C)n(C)c2=O)cc2cc(Cl)ccc21 [Example 220, 8-(5-amino-1H-pyrazol-1-yl)-1-((5-chloro-1-methyl-1H-indol-2-yl)methyl)-3,7-dimethyl-1H-purine-2,6(3H,7H)-dione] |
| 1000 to 5000 | Cn1c(N[C@@H]2CCCNC2=O)nc2c1c(=O)n(Cc1cc3ccccc3[nH]1)c(=O)n2C [Example 221, (R)-1-((1H-indol-2-yl)methyl)-3,7-dimethyl-8-(2-oxopiperidin-3-ylamino)-1H-purine-2,6(3H,7H)-dione] |
| 1000 to 5000 | Cn1c(CCO)nc2c1c(=O)n(Cc1cc3cc(Cl)ccc3[nH]1)c(=O)n2C [Example 223, 1-((5-chloro-1H-indol-2-yl)methyl)-8-(2-hydroxyethyl)-3,7-dimethyl-1H-purine-2,6(3H,7H)-dione] |
| 10 to 1000 | Cn1c(Cn2c(=O)c3c(nc(Nc4cc[nH]c(=O)n4)n3C)n(C)c2=O)cc2cc(Cl)ccc21 [Example 224, 1-((5-chloro-1-methyl-1H-indol-2-yl)methyl)-3,7-dimethyl-8-(2-oxo-1,2-dihydropyrimidin-4-ylamino)-1H-purine-2,6(3H,7H)-dione] |
| 10 to 1000 | Cn1c(Cn2c(=O)c3c(nc(CCN4CCOCC4)n3C)n(C)c2=O)cc2cc(Cl)ccc21 [Example 225, 1-((5-chloro-1-methyl-1H-indol-2-yl)methyl)-3,7-dimethyl-8-(2-morpholinoethyl)-1H-purine-2,6(3H,7H)-dione] |
| 10 to 1000 | Cn1c(CCN2CCOCC2)nc2c1c(=O)n(Cc1cc3ccccc3[nH]1)c(=O)n2C [Example 226, 1-((1H-indol-2-yl)methyl)-3,7-dimethyl-8-(2-morpholinoethyl)-1H-purine-2,6(3H,7H)-dione] |
| 1000 to 5000 | Cc1ccc2[nH]c(Cn3c(=O)c4c(nc(CCN5CCOCC5)n4C)n(C)c3=O)cc2c1 [Example 227, 3,7-dimethyl-1-((5-methyl-1H-indol-2-yl)methyl)-8-(2-morpholinoethyl)-1H-purine-2,6(3H,7H)-dione] |
| 10 to 1000 | Cn1c(CCN2CCOCC2)nc2c1c(=O)n(Cc1cc3cc(Cl)ccc3[nH]1)c(=O)n2C [Example 229, 1-((5-chloro-1H-indol-2-yl)methyl)-3,7-dimethyl-8-(2-morpholinoethyl)-1H-purine-2,6(3H,7H)-dione] |
| 10 to 1000 | Cn1c(Cn2c(=O)c3c(nc(-n4ncnc4N)n3C)n(C)c2=O)cc2cc(Cl)ccc21 [Example 230, 8-(5-amino-1H-1,2,4-triazol-1-yl)-1-((5-chloro-1-methyl-1H-indol-2-yl)methyl)-3,7-dimethyl-1H-purine-2,6(3H,7H)-dione] |
| 5000 to 10000 | Cn1c(N)nc2c1c(=O)n(Cc1cc3ccccc3[nH]1)c(=O)n2C [Example 231, 1-((1H-indol-2-yl)methyl)-8-amino-3,7-dimethyl-1H-purine-2,6(3H,7H)-dione] |
| > 10000 | Cc1ccc2[nH]c(Cn3c(=O)c4c(nc(N)n4C)n(C)c3=O)cc2c1 [Example 232, 8-amino-3,7-dimethyl-1-((5-methyl-1H-indol-2-yl)methyl)-1H-purine-2,6(3H,7H)-dione] |
| 5000 to 10000 | Cc1ccc2c(c1)cc(Cn1c(=O)c3c(ncn3C)n(C)c1=O)n2C [Example 233, 1-((1,5-dimethyl-1H-indol-2-yl)methyl)-3,7-dimethyl-1H-purine-2,6(3H,7H)-dione] |
| 1000 to 5000 | Cn1cnc2c1c(=O)n(Cc1cc3ccccc3[nH]1)c(=O)n2C [Example 234, 1-((1H-indol-2-yl)methyl)-3,7-dimethyl-1H-purine-2,6(3H,7H)-dione] |
| 1000 to 5000 | Cn1cnc2c1c(=O)n(Cc1cc3ccccc3n1C)c(=O)n2C [Example 235, 3,7-dimethyl-1-((1-methyl-1H-indol-2-yl)methyl)-1H-purine-2,6(3H,7H)-dione] |
| 1000 to 5000 | Cc1ccc2[nH]c(Cn3c(=O)c4c(ncn4C)n(C)c3=O)cc2c1 [Example 236, 3,7-dimethyl-1-((5-methyl-1H-indol-2-yl)methyl)-1H-purine-2,6(3H,7H)-dione] |
| 1000 to 5000 | Cn1c(Cn2c(=O)c3c(nc(N)n3C)n(C)c2=O)cc2cc(Cl)ccc21 [Example 237, 8-amino-1-((5-chloro-1-methyl-1H-indol-2-yl)methyl)-3,7-dimethyl-1H-purine-2,6(3H,7H)-dione] |
| > 10000 | COc1ccc2c(c1)cc(Cn1c(=O)c3c(ncn3C)n(C)c1=O)n2C [Example 238, 1-((5-methoxy-1-methyl-1H-indol-2-yl)methyl)-3,7-dimethyl-1H-purine-2,6(3H,7H)-dione] |
| 1000 to 5000 | COc1ccc2[nH]c(Cn3c(=O)c4c(ncn4C)n(C)c3=O)cc2c1 [Example 239, 1-((5-methoxy-1H-indol-2-yl)methyl)-3,7-dimethyl-1H-purine-2,6(3H,7H)-dione] |
| 1000 to 5000 | Cn1cnc2c1c(=O)n(Cc1cc3cc(Cl)ccc3[nH]1)c(=O)n2C [Example 240, 1-((5-chloro-1H-indol-2-yl)methyl)-3,7-dimethyl-1H-purine-2,6(3H,7H)-dione] |

Source: patent publication US12187728B2 (Raze Therapeutics, Inc., priority 2015, dated 2025)
